We go through 13 compounds from ChEMBL document CHEMBL1201862, “PubChem BioAssay data set” (2004).

Common to all, as to test: DTP human tumour cell line panel, 48 h
Experiment [1] has as its system HCT-116.
For experiment [2], the system named is COLO 205.
The test system of experiment [3] is SF-268.
The test system of experiment [4] is SW-620.
Experiment [5] concerns A549.
Experiment [6] relates to TK-10.
The subject of experiment [7] is UO-31.
The subject of experiment [8] is HOP-92.
The subject of experiment [9] is OVCAR-5.
The test system of experiment [10] is SF-295.
In experiment [11] the test system is DLD-1.
Experiment [12] has as its system RPMI-8226.
Experiment [13] relates to HT-29.
In experiment [14] the test system is A498.
The subject of experiment [15] is SN12C.
Experiment [16] has as its system CAKI-1.

Each structure is given as a SMILES string.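 Dose response: 5 concentrations. Exposure: 48 h. Format: 96-well plates. Endpoint: linear interpolation; highest concentration if not reached. GI50 = concentration required for 50% inhibition of growth.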 Calls of active or inactive are those of the source. No stated cut-off is given here; in the data, active = GI50 up to about 1.1 µM and inactive = higher.

What is called GI50 is the concentration that inhibits growth by half. For the compound `CSC(=S)N/N=C/c1nccc2ccccc12`, the GI50 was 1.25 µM (inactive) in [1]; 0.138 µM (active) in [2]; 1.04 µM (active) in [3]; 0.631 µM (active) in [4]; 1.65 µM (inactive) in experiment [5]; 7.08 µM (inactive) in [6]. Also, the GI50 in experiment [7] was 1.94 µM (inactive); in [8], 1.37 µM (inactive); in [9], 2.74 µM (inactive); in experiment [10] it was 1.48 µM (inactive); in experiment [11] it was 0.537 µM (active); in [12] it was 0.522 µM (active). For the same compound, the 50% growth inhibitory concentration (GI50) in experiment [13] is 0.701 µM (active); in experiment [14] it was 2.45 µM (inactive); in experiment [15] it was 1.6 µM (inactive); in [16], 2.34 µM (inactive).
For the compound `CC1(C)OC(=O)C(=C2CC(c3ccccc3)c3ccccc32)C(=O)O1` (centres undefined), the GI50 in [1], in experiment [2], in experiment [3], in [4], in [5] and in experiment [6] was > 100 µM (inactive) in each case. Moreover, the GI50 in experiment [7], in experiment [8], in [9], in [10], in experiment [11] and in [12] was > 100 µM (inactive) each time. Besides, the GI50 in experiment [13], in experiment [14], in experiment [15] and in experiment [16] was > 100 µM (inactive) each time.
On to `CCOc1ccc(/N=C\c2cc(OC)c(OC)c(OC)c2)cc1`, for which the GI50 was > 100 µM (inactive) in experiment [1]; > 100 µM (inactive) in experiment [3]; 14.9 µM (inactive) in experiment [4]; > 100 µM (inactive) in [5]; > 100 µM (inactive) in experiment [6]; > 100 µM (inactive) in experiment [7]. Besides, the GI50 is > 100 µM (inactive) in experiment [8]; > 100 µM (inactive) in [9]; > 100 µM (inactive) in experiment [10]; > 100 µM (inactive) in experiment [11]; 18.2 µM (inactive) in experiment [12]; > 100 µM (inactive) in [13]. Further, the GI50 in [14], in experiment [15] and in [16] was > 100 µM (inactive) throughout.
In the case of `[O-][S+]1Nc2cccc(C(F)(F)F)c2S1` (centres undefined), the GI50 in experiment [1] was 27.3 µM (inactive); in experiment [2], 19.8 µM (inactive); in experiment [3] it was 48 µM (inactive); in experiment [4], 9.91 µM (inactive); in experiment [5], 34 µM (inactive); in experiment [6] it was 34.4 µM (inactive). The GI50 in [7] is 19.1 µM (inactive); in [8], 35.6 µM (inactive); in experiment [9] it was 69.8 µM (inactive); in experiment [10] it was 45.4 µM (inactive); in [11], 34.4 µM (inactive); in [12], 29 µM (inactive). Moreover, the GI50 in experiment [13] is 35.7 µM (inactive); in experiment [14] it was 22.9 µM (inactive); in experiment [15] it was 35.6 µM (inactive); in experiment [16], 30.5 µM (inactive).
For the compound `Cc1ccccc1NC(=O)C(=O)Cc1nc2ccccc2s1`, the GI50 in experiment [1], in experiment [2], in experiment [3], in [4], in [5] and in [6] was > 100 µM (inactive) throughout. The GI50 in [7], in [8], in [9], in experiment [10], in [11] and in experiment [13] was > 100 µM (inactive) each time. In addition, the GI50 in experiment [14], in experiment [15] and in [16] was > 100 µM (inactive) in each case.
For `COc1cc(/C=C/C(=O)c2sc(Nc3ccccc3)nc2C)ccc1O`, the GI50 in experiment [2] was > 100 µM (inactive); in [3], 49.2 µM (inactive); in experiment [4] it was > 100 µM (inactive); in [5], 71.8 µM (inactive); in experiment [6], > 100 µM (inactive); in experiment [7], 43.6 µM (inactive). In addition, the GI50 in experiment [8] was 35.6 µM (inactive); in experiment [9], > 100 µM (inactive); in experiment [10], 38.2 µM (inactive); in experiment [11], 37.5 µM (inactive); in [12], 83.2 µM (inactive); in experiment [13] it was 97.9 µM (inactive). Also, the GI50 is > 100 µM (inactive) in experiment [14], 59.6 µM (inactive) in experiment [15] and 42.9 µM (inactive) in experiment [16].
As for `COc1ccc(C(=O)C(C(=O)C(=O)Nc2nccs2)c2ccc(OC)cc2)cc1` (centres undefined), the GI50 in experiment [1], in [2], in experiment [3], in [4], in experiment [5] and in experiment [6] was > 100 µM (inactive) in each case. The GI50 in experiment [7], in experiment [8], in experiment [9], in [11], in [12] and in experiment [13] was > 100 µM (inactive) throughout. Also, the GI50 in experiment [14], in experiment [15] and in experiment [16] was > 100 µM (inactive) in each case.
Take `CC1=C(C(=O)Nc2cc(F)c(F)cc2F)C(c2ccc3c(c2)OCO3)C(C(=O)Nc2cc(F)c(F)cc2F)=C(C)N1`: the GI50 in experiment [2] was 21.8 µM (inactive); in experiment [3], 23.3 µM (inactive); in experiment [4] it was 33.5 µM (inactive); in [5] it was 22.6 µM (inactive); in [6] it was 23.9 µM (inactive); in experiment [7] it was 12.9 µM (inactive). Also, the GI50 in [8] is 2.72 µM (inactive); in experiment [9] it was 19.9 µM (inactive); in [10], 21.9 µM (inactive); in experiment [11], 18.9 µM (inactive); in experiment [12], 16 µM (inactive); in experiment [13], 27.4 µM (inactive). In addition, the figures for the GI50 in [14], in experiment [15] and in experiment [16] were 21 µM (inactive), 18.7 µM (inactive) and 11.8 µM (inactive), respectively.
For the compound `O=C(c1ccc(Cl)cc1)c1ccc(OCCCCCCCCCCOc2ccc(C(=O)c3ccc(Cl)cc3)cc2)cc1`, the GI50 in [2], in experiment [3], in [4], in [5], in [6] and in [7] was > 100 µM (inactive) each time. Moreover, the GI50 in [8], in [9], in experiment [10], in experiment [11], in experiment [12] and in [13] was > 100 µM (inactive) throughout. In addition, the GI50 in experiment [14], in experiment [15] and in experiment [16] was > 100 µM (inactive) in each case.
Turning to `COc1cc2cc(OC)c3cc4c(cc3c2c(OC)c1OC)OCO4`, the GI50 in experiment [1] is 38.2 µM (inactive); in experiment [2], 19.6 µM (inactive); in [3], > 51.1 µM (inactive); in experiment [4], 18.6 µM (inactive); in experiment [5], 44.6 µM (inactive); in [6], 48.3 µM (inactive). Moreover, the GI50 was 29.4 µM (inactive) in [7]; > 46 µM (inactive) in experiment [8]; 25.2 µM (inactive) in experiment [9]; 28.1 µM (inactive) in experiment [10]; 18.1 µM (inactive) in experiment [11]; 14.7 µM (inactive) in experiment [12]. Moreover, the GI50 was 10.9 µM (inactive) in experiment [13], > 45.5 µM (inactive) in [14], > 69.3 µM (inactive) in [15] and 33 µM (inactive) in experiment [16].
Regarding `COC(=O)C1=C(C(=O)OC)C2C=CC1C1C(Cl)=C(Cl)C21` (centres undefined), the GI50 in experiment [2], in experiment [3], in experiment [4], in [5], in [6] and in experiment [7] was > 100 µM (inactive) throughout. The GI50 was 40.1 µM (inactive) in [8]; > 100 µM (inactive) in experiment [9]; > 100 µM (inactive) in experiment [10]; > 100 µM (inactive) in [11]; > 100 µM (inactive) in experiment [12]; > 100 µM (inactive) in experiment [13]. Further, the GI50 in experiment [15] and in experiment [16] was > 100 µM (inactive) in each case.
For the compound `CC(=O)Nc1ccc(-c2nnc(SCC(=O)Nc3ccccc3[N+](=O)[O-])o2)cc1`, the GI50 in experiment [1], in [2], in [3], in experiment [4], in [5] and in experiment [6] was > 100 µM (inactive) each time. For the same compound, the GI50 is 81.3 µM (inactive) in [7]; > 100 µM (inactive) in experiment [8]; > 100 µM (inactive) in [9]; 98.6 µM (inactive) in [10]; > 100 µM (inactive) in experiment [11]; > 100 µM (inactive) in [12]. In addition, the GI50 in experiment [13], in [15] and in experiment [16] was > 100 µM (inactive) in each case.
In the case of `CCCC(O)[C@@H](O)c1ccc2c(c1O)C(=O)c1c(OC)cccc1C2=O` (some centres undefined), the GI50 in experiment [1] was 38.5 µM (inactive); in experiment [2], 20.9 µM (inactive); in experiment [3] it was 57.7 µM (inactive); in experiment [4] it was 63.2 µM (inactive); in experiment [5], 44 µM (inactive); in experiment [6] it was 51.4 µM (inactive). For the same compound, the GI50 was 28.2 µM (inactive) in [7]; 58.2 µM (inactive) in experiment [8]; 54.7 µM (inactive) in experiment [9]; 33 µM (inactive) in [10]; 36.9 µM (inactive) in experiment [11]; 5.73 µM (inactive) in experiment [12]. In addition, the GI50 in [13] is 38.9 µM (inactive); in experiment [14], 34.5 µM (inactive); in experiment [15], 40.4 µM (inactive); in experiment [16], 27.8 µM (inactive).
